Laboratory results from US20230114207A1, “THE COMBINATION OF CYCLIN DEPENDENT KINASE 7 INHIBITOR AND IMMUNOTHERAPY FOR TREATMENT OF CANCER” (Dana-Farber Cancer Institute, Inc., priority 2019, published 2023).

Key:
DMS79 cells = assay: BrdU analysis; type: cell-based, human; conditions: 100 nM, 24 and 48 hour
Method: Cells were seeded in 6-well plates (0.5-1×10^6 cells/well) in media and treated with YKL-5-124 at indicated concentrations and time points. Prior to collection, cells were pulsed with […] BrdU (BD Biosciences, #559619) for 2-4 hr (depending on cell line doubling time) and collected by centrifugation. Hereafter cells were permeabilized, fixated and stained according to BrdU kit instruction (BD Biosciences, Cat #559619). Cells were gated for BrdU incorporation (FITC) and 7-aminoactinomycin D (7-AAD) to quantify cells in G1, S (BrdU positive) and G2/M.

RPP631 cells [1] = assay: EdU and MCM2 imaging by STORM; type: cell-based, mouse; conditions: 100 nM, 48 and 72 hr
Method: RPP631 cells were incubated in the presence of 100 nM YKL-5-124 for 48-72 hr. EdU was pulsed during the last 30 minutes of YKL-5-124 treatment. Treated cells were pre-extracted using 0.5% Triton in CSK buffer (10 mM Hepes, 300 mM Sucrose, 100 mM NaCl, and 3 mM MgCl2, pH=7.6) for 10 minutes, and fixed with paraformaldehyde (4%) for 30 minutes. Cells were then rinsed 3 times with PBS and blocked (2% glycine, 2% BSA, 0.2% gelatin, and 50 mM NH4Cl in PBS) overnight at 4° C. for further staining. […]
STORM imaging was performed on a customized inverted microscope. […] Cell samples were sequentially illuminated with 639 and 750 laser lines and the emitted fluorescence was collected by the same objective with a 2× magnification tube lens (Diagnostic Instruments). The fluorescence was then filtered by single band filters (Semrock FF01-676/37 and FF02-809/81) switched in a filter wheel accordingly. […]
Each 2000-frame single-molecule image stack was submitted to a home-built software for precise single-molecule localization. […] The fitting accuracy was evaluated using Cramer-Rao Lower Bound (CRLB). Note that the patterned read-out noise of the sCMOS camera was calibrated before imaging. Such read-out noise for each pixel was approximated into a Gaussian distribution and convolved with the Poisson shot noise for MLE fitting. […] The number of fluorophores is proportional to the quantity of EdU and MCM2. […]

RPP631 cells [2] = assay: Bulk RNA-sequencing and GSEA; type: cell-based, mouse; conditions: 48 hr
Method: Paired-end reads were aligned to mouse mm10 genome using STAR (v2.5.2b). Reads with good mapping quality (MAPQ>30) that aligned to genomic exons were counted using featureCounts (mm10 Ensembl 93) to generate a table with counts for each gene. Differential gene expression analysis was performed using the R package DESeq2 using the lfcShrink function. […] Gene set enrichment analysis (GSEA) was performed on a list of genes ranked from high to low DESeq2 estimated fold-change using the GSEAPreRanked function with enrichment statistic classic and 1000 permutations.

OT-I CD8^+ T cells = assay: Ex vivo OT-I T cell assay; type: cell-based, mouse
Method: The spleen of OT-I mice was minced with a razor and mashed through a 40 µm strainer to form a single-cell suspension. Separated cells were then treated with RBC lysis buffer and a number of 5×10^5 cells were seeded in a 96-well U-bottom plate. For conditioned medium culture assay, RPP631 cells were treated with either DMSO or YKL-5-124 for 48 hr and drug was washed off after first 6-hour treatment. Subsequently, DMSO-conditioned medium or YKL-5-124-conditioned medium were collected and added to above single-cell suspension in a 96-well U-bottom plate in the presence of Ova257-264 peptide (10 μg/ml, GenScript, Cat #RP10611) for 4 days. Alternatively, DMSO or YKL-5-124 was added directly to single-cell suspension in the presence of Ova257-264 peptide for 4 days in the T cell assay medium (complete RPMI with HEPES, sodium pyruvate, MEM nonessential amino acids and 2-mercaptethonal). T cell activation markers CD69, TNFα. and IFNγ were analyzed by flow cytometry.

C=CC(=O)Nc1ccc(C(=O)Nc2n[nH]c3c2CN(C(=O)N[C@H](CN(C)C)c2ccccc2)C3(C)C)cc1 [YKL-5-124]
BrdU-incorporated S-phase cells (DMS79 cells): significant decrease | EdU content in each nucleus and in each focus (RPP631 cells [1]): dramatic decrease | MCM2 content in each nucleus and replication focus (RPP631 cells [1]): significant decline | expression of pro-inflammatory cytokines and chemokines incl. TNFα pathway components and Cxcl10 (heatmaps) (RPP631 cells [2]): increased expression | genes within GSEA terms associated with cell cycle, mitosis and E2F targets (RPP631 cells [2]): downregulated | expression of SCLC SE-associated genes (RPP631 cells [2]; compared with THZ1): little effect | 'Interferon gamma response', 'TNFα signaling' and 'Inflammatory response' Hallmarks signatures (GSEA) (RPP631 cells [2]; three of the top five): most positively regulated | CD8^+ T cell activity (OT-I CD8^+ T cells; OT-I T cells directly treated): No significant effect | percentage of CD69^+, TNFα^+ and IFNγ^+ CD8^+ T cells (OT-I CD8^+ T cells; YKL-5-124-conditioned medium of mouse SCLC cells vs DMSO-conditioned medium): significant increase
